Source: patent US20220162221A1, “Imaging Agents” (UCB Biopharma SRL, priority 2017, published 2022)

How the values were obtained:
[1] = test system: adenosine transporter (ADET); experiment: Adenosine transporter binding, CEREP panel; parameters: species or system human; details: at 10 μM, n=1 in duplicate
Procedure: (§1) Compound selectivity for human D1R was assessed at 10 μM at CEREP against a panel of 80 targets (n=1 with data in duplicate) including receptors, transporters, enzymes and ion channels. Potentially relevant affinity was identified for only 3 targets: dopamine D5 receptor (D5R), tachykinin NK1 receptors and adenosine transporter (ADET) with >60% inhibition at 10 μM of compound (±)-(I). Affinity (pKi) of compound of formula (±)-I for human DSR, NK1 receptor and ADET were then measured.

[2] = biological target: T1, dopamine D5 receptor (D5R) (Homo sapiens, UniProt P21918); experiment: D5R binding, CEREP panel and pKi follow-up
T1 construct: purchased CEREP, contract assay
Procedure: as §1

[3] = biological target: hD1R in SK-N-MC cells (Homo sapiens, UniProt P21728); experiment: cAMP HTRF D1 functional assay; details: cAMP HTRF
Procedure: The reaction was terminated by consecutive additions of 10 μL d2 detection reagent and the cryptate reagent both diluted in lysis buffer. After a period of 60 min at room temperature, changes in HTRF emission ratio were determined and transformed in [cAMP]i using a standard curve.

[4] = test system: panel of 80 targets including receptors, transporters, enzymes and ion channels; experiment: Selectivity panel of 80 targets (CEREP); format: binding
Procedure: (§2) To assess compound (I) affinity and selectivity for D1, it has been tested in competitive radioligand binding assays. Competitive radioligand binding assays were then used to measure (±)-I affinity for D1 receptor and assess its selectivity regarding a large panel of 80 related and unrelated targets.
as §1

[5] = biological target: T2, tachykinin NK1 receptors (Homo sapiens, UniProt P25103); experiment: NK1 binding, CEREP panel; details: n=1 in duplicate
T2 construct: purchased CEREP, contract assay
Procedure: as §1

[6] = biological target: human D1R (Homo sapiens, UniProt P21728); experiment: [3H]SCH23390 radioligand competitive binding (CEREP); parameters: purchased CEREP (Celle l'Evescault, France), contract assay
Procedure: as §2
Affinity (pKi) of Compound of formula (±)-(I) for recombinant human D1R was measured at CEREP (Celle l'Evescault, France) by [^3]SCH23390 radioligand competitive binding experiments.

[7] = competitive radioligand binding

T1 sequence (P21918 whole entry): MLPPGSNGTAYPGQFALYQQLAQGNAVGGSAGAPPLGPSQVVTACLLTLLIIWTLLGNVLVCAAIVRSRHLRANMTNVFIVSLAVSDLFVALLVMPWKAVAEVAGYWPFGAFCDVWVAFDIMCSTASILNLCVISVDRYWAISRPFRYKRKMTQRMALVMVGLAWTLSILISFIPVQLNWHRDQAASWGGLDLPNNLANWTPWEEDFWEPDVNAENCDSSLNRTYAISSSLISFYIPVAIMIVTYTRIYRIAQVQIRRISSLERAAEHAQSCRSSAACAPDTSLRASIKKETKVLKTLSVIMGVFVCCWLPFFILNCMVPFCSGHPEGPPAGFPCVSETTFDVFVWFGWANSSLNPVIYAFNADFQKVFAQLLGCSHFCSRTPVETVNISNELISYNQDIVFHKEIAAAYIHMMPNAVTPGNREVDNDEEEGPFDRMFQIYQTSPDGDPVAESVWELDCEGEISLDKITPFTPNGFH
Sequence of human D1R (P21728 whole entry): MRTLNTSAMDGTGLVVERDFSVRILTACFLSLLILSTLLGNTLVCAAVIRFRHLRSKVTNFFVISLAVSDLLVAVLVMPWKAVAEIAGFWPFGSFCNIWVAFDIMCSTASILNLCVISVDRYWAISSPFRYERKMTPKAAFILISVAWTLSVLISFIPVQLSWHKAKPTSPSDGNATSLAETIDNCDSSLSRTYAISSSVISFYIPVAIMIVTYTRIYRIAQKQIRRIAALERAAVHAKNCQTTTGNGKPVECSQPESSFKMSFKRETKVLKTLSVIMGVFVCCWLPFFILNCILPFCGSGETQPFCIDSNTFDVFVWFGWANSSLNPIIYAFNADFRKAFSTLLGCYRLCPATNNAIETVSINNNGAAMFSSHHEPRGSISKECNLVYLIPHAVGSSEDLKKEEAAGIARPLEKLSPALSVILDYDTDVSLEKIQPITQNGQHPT
T2 sequence (P25103 whole entry): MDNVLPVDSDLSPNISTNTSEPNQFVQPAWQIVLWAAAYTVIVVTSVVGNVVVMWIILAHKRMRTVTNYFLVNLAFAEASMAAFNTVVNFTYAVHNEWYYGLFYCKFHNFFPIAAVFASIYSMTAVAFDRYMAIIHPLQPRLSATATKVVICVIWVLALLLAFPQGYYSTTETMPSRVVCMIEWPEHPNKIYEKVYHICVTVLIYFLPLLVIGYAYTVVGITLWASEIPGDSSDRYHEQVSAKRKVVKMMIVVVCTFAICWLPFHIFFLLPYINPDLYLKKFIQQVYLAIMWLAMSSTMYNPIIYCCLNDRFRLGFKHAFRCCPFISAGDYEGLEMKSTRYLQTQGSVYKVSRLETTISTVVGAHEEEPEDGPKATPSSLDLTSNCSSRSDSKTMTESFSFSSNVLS
Sequence of hD1R in SK-N-MC cells (P21728 whole entry): as the sequence (P21728 whole entry) above

inhibition, adenosine transporter (ADET) [1]: > 60%
Ki [2]: 0.398 nM
inhibition at 10 µM ([2]; at 10 μM, n=1 in duplicate): > 60%
affinity for D5 receptor [2, 7]: subnanomolar range
agonist-like effect on D1 receptor [3]: significant direct agonist-like effect
selectivity with respect to the other 79 tested targets ([4]; D1-like vs other targets): more than 1000 fold
pKi for the other 79 tested targets ([4]; all targets other than D1R, D5R excepted by text): ≤ 6.0
binding to the other tested targets ([4]; panel of 80 targets): do not significantly bind
inhibition at 10 µM [5]: > 60%
Ki ([6]; [3H]SCH23390 competition, read-out: pKi for human D1R (converted)): 0.631 nM
affinity for D1 receptor [6, 7]: subnanomolar range
SMILES: Cc1c(-c2ccc(Oc3nccc4occc34)cc2CF)n(C)c(=O)[nH]c1=O (racemic) [Compound (±)-(I), 6-[2-(fluoromethyl)-4-(furo[3,2-c]pyridin-4-yloxy)phenyl]-1,5-dimethylpyrimidine-2,4(1H,3H)-dione]
